Structures are written as SMILES.

The values below come from a melting point compilation (Tetko et al.; mined from patent text by program, amines drawn as free bases though some values may be those of a salt).

Turning to `Nc1ncc(CCCCc2ccc(Cl)cc2)c(N)n1`, the melting point lay in the range of 159 to 162 °C. The same measure for `O=C(CCCO)NCC1c2ccccc2CCc2ccccc21`: 98 to 99 °C; for `Cc1nc(-n2ccc(OCc3ccc(C(F)(F)F)o3)cc2=O)sc1C(=O)NCc1ccccc1`: 214 to 216 °C; for `COC(=O)c1c(C)n(-c2cc(N)c(C)cc2C)cc(Cl)c1=O`: 215 °C. Compound `O=C(CN1CCOCC1)Nc1ccc(-c2n[nH]c3c2Cc2ccccc2-3)cc1` registered a melting point of 291 to 292 °C. Consider `O=C(O)c1cc(-c2ccc3c(c2)CCO3)nn(Cc2ccc(F)cc2)c1=O`, for which the melting point lay within 215 to 218 °C. `CC1(C)CC(S(=O)(=O)Cc2c(Cl)nn(C(F)F)c2C(F)(F)F)=NO1` came in with a melting point of 136 to 137 °C. As for `Cc1cc(Oc2ccc(C(=O)O)cc2)ccc1[N+](=O)[O-]`, the figure is 187 to 190 °C; as for `COc1ccc(C)cc1NC(=O)Nc1ccc(N2CCN(Cc3ccccc3)CC2)cc1`, 184 to 186 °C; as for `Cc1cc(Cn2nc(C(F)(F)C(F)(F)F)nc2C(F)(F)F)ccc1NC(=O)c1cccc(Br)c1C(=O)N[C@@H](C)CS(C)(=O)=O`, 104 to 108 °C. The compound `OC1CSC(Oc2cncc(-c3ccncc3Cl)c2)C(O)C1O` (centres undefined) yielded a melting point of 208 °C. The same measure for `CC(C)(C)c1cc(CC=Cc2ccccc2)cc(C(C)(C)C)c1O`: 93 °C; for `O=C(CNC(=O)OCc1ccccc1)NCCCCCCO`: 104 to 105 °C; for `COc1ccc(-c2nc(Sc3nc(-c4ccc(OC)cc4)c(-c4ccc(OC)cc4)[nH]3)[nH]c2-c2ccc(OC)cc2)cc1`: 244 to 245 °C.

In turn, `COc1ccc(C(=O)c2cccc(Cc3ccc(=O)[nH]n3)c2Cl)cc1` came in with a melting point of 192 to 193 °C.

As to `COc1cc(OC)cc(C(=O)NC(NC(=NC#N)Nc2ccc(C(F)(F)F)nc2)C(C)(Cl)Cl)c1` (centres undefined), the melting point was 187 to 189 °C. On to `O=C(Nc1c[nH]nc1C(=O)NC1CCCC1)c1ccccn1`, for which the melting point was in the range of 240 to 241 °C.

`CC(C)c1nn(-c2ccc(Cl)cn2)cc1CO` had a melting point of 135 to 136 °C. `COC(=O)C(C)Oc1ccc(N(C)c2nc3cc(Cl)ccc3s2)cc1` (centres undefined) came in with a melting point of 120 °C.

`COc1cccc(N2CCN(CCC(=O)O)CC2)c1`: the melting point was in the range of 180 to 183 °C. The same measure for `COc1cc(C(=O)O)ccc1OCCCCCOc1ccc(C#N)cc1`: 159 to 161 °C; for `CC(C)C(=O)C(=Cc1ccccc1)C(=O)Nc1ccccc1`: 144 to 154 °C; for `O=C(O)C=CC(F)(F)F`: 95 to 100 °C. For `Nc1cc(C(=O)O)cc(NCc2ccccc2)c1-c1ccccc1`, the melting point fell in the range of 179 to 181 °C. As for `CC(N)Cc1ncc(O)c(C(=O)c2ccccc2)c1C(=O)c1ccccc1` (centres undefined), the figure is 110 to 112 °C; as for `CCN1CCCC(N2C(=O)c3ccc([N+](=O)[O-])cc3C2=O)C1` (centres undefined), above 300 °C. The compound `CCCN1CCc2c(cccc2NC(=O)c2ccc(OC)cc2)C1` showed a melting point of 162 to 164 °C. As for `CCCn1nc2c(N)nc3ccccc3c2c1CCCCN1C(=O)c2ccccc2C1=O`, the figure is 204 to 206 °C; as for `CCCn1c(=O)c2[nH]c(/C=C/c3ccc(OC)cc3OC)nc2n(CCC)c1=O`, 273 to 274 °C; as for `Cc1c(Br)c2cnnc(OCc3ccc(F)cc3)c2n1Cc1ccccc1`, 128 to 130 °C. The same measure for `OC1(c2ccccc2Cc2ccccc2)CCC2(CC1)OCCO2`: 97 to 98 °C. Consider `CCCc1cc(OC)c(OC)c(C(=O)NC[C@@H]2CCCN2CC)c1OC`, for which the melting point was 68 to 70 °C. Compound `O=C1CC(c2cccc(-n3ccnc3)c2)=Nc2cc(N3CCC(OCCO)CC3)c(-c3ccc(F)cc3)cc2N1` showed a melting point of 225 to 227 °C.

Take `COCCS(=O)(=O)c1ccccc1S(=O)(=O)NC(=O)Nc1nc(OC)cc(OC)n1`: the melting point was in the range of 187 to 192 °C.

Compound `O=C(c1ccc(-n2ccc(C3CC3)n2)cc1C(F)(F)F)N1Cc2cccn2Cc2ccccc21` had a melting point of 163 to 164 °C. The same measure for `O=C(O)Cn1c(=O)c2cc(Cl)ccc2n(Cc2ccc(F)cc2)c1=O`: 211 to 212 °C; for `OC(CCCN1CC=C(c2cc(C(F)(F)F)on2)CC1)c1ccc(F)cc1` (centres undefined): 120 to 122 °C; for `O=C1OC(c2ccccc2)C(c2ccccc2)=C1C(=O)N1CCOCC1` (centres undefined): 204 to 206 °C.

As for `Cc1ccc(Cl)cc1N1C(=O)CN(c2ccccc2)C1=S`, the melting point was 168 to 170 °C. `CC(F)=C1CCC2C3CC=C4CC(O[Si](C)(C)C(C)(C)C)CCC4(C)C3CCC12C` (centres undefined) gave a melting point of 128 to 130 °C.

Turning to `CC(C)(C)OC(=O)CON=C1CC(=NOCC(=O)OC(C)(C)C)c2ccccc2-c2ccccc21`, the melting point was 105 to 107 °C. The compound `COc1ccc(NS(=O)(=O)c2ccc(OC)c3c2c2ccccc2n3C=O)cc1` had a melting point of 190 to 192 °C.

Consider `CN1C(=O)N(c2ccccc2F)C(=O)C1=CC1CCCCC1`, for which the melting point was 131 to 137 °C. As for `CC(C)CCOc1c(Cl)c(Sc2ccccc2N)c(OCCC(C)C)c2c1C(=N)NC2=N`, the figure is 175 to 176 °C; as for `Cc1cc2c(OCc3ccc(-c4nnn[nH]4)cc3)cccc2o1`, 196 to 197 °C. The same measure for `O=C1c2ccccc2C(=O)N1CCCN1CCC(C(c2ccccc2)c2ccccc2)CC1`: 104 to 106 °C; for `O=[N+]([O-])c1cc(C(O)CCN2CC=C(c3ccc(Cl)cc3)CC2)ccc1F` (centres undefined): 154 to 156 °C; for `CNCC(O)c1cc(OC)c(O)c(OC)c1` (centres undefined): 175 °C.

Regarding `Cc1nc(S(=O)(=O)CC(N)=O)nc(C)c1Br`, the melting point was 175 to 177 °C. The same measure for `CCc1cnc2c(NC(=O)c3c(Cl)cccc3Cl)cccc2c1/C=C/C(=O)O`: 235 to 236 °C; for `Cn1c(=O)cnn(-c2cc(O)c(Cl)cc2Cl)c1=O`: 199 to 201 °C. The same measure for `Cc1ccc([N+](=O)[O-])c(OCc2ccccc2)c1`: 49 to 51 °C; for `Cc1cc(C)c2c(c1)OC(C)(COc1ccc([N+](=O)[O-])cc1)C=C2` (centres undefined): 116 to 118 °C; for `O=C(CNc1ccc(F)cc1)N1CCN2C(=O)OC(c3ccccc3)(c3ccccc3)C2C1` (centres undefined): 203 to 204 °C.

With `O=C1Cc2ccccc2N1NCCCc1ccncc1F`, the melting point was 114 to 116 °C. As for `COc1cccc(-c2cn(-c3ccccc3)c3ncnc(N)c23)c1`, the figure is 159 to 160 °C; as for `Cn1ncc(/C=C/C(=O)Nc2ccc3c(c2)oc(=O)n3C)c1-c1ccc(F)cc1`, 265 to 266 °C; as for `COC(=O)/C(=N/N(C)C)c1ccc(OCCOc2ccc3ccccc3c2)cc1`, 109 to 111 °C. The same measure for `CCNc1cc(C)nn1-c1c(Cl)cc(C(F)(F)F)cc1Cl`: 74 to 75 °C. In turn, `COC1(c2cccc(OCc3ccc4ccccc4c3)c2)CCCOCC1` (centres undefined) registered a melting point of 57 to 58 °C. The compound `COc1nc(OC)c(C(C)C)c(C(=O)c2cc(C)cc(Cl)c2)n1` yielded a melting point of 119 to 120 °C. As to `COc1ccc(CCNC(=O)C(=O)NCCCCCCN)cc1OC1CCCC1`, the melting point fell in the range of 105 to 110 °C. For the compound `O=C1CC(C(F)(F)F)CC(=O)N1c1cc(C2OCCCO2)c(Cl)cc1F`, the melting point was in the range of 158 to 161 °C. `COc1ccc2oc(-c3nc4c(s3)NCCCC4C(C)=O)cc2c1` (centres undefined): the melting point was 147 to 149 °C. `O=C1COc2ccc3ccccc3c2N1` yielded a melting point of 219 to 220 °C. The same measure for `CS(=O)(=O)c1ccc(-n2nc(C(F)(F)F)cc2-c2ccc(-c3ccco3)c(Cl)c2)cc1`: 143 to 145 °C.

`C=CCn1c(SCc2cnn(-c3c(Cl)cc(C(F)(F)F)cc3Cl)n2)nc(C#N)c1C#N`: the melting point lay in the range of 125 to 127 °C. As for `O=C(NC1CN2CCC1CC2)C1(O)c2ccccc2-c2ccccc21` (centres undefined), the figure is 230 °C. As for `CCC(=O)C(CCCCc1ccc(O)cc1)C(=O)CC`, the figure is 67 to 69 °C; as for `COc1ccc(-n2nnnc2C(F)(F)F)c(OC)c1CBr`, 89.5 to 90 °C; as for `Cc1cc(C)cc(C(=O)c2[nH]c(=O)[nH]c(=O)c2C(C)C)c1`, 149 to 150 °C.

`O=[N+]([O-])c1cnccc1Oc1ccc(Cl)cc1` yielded a melting point of 93 to 94 °C. As for `Clc1nc(N2CCCCC2)c2nc(Cl)nc(N3CCCCC3)c2n1`, the figure is 240 to 241 °C; as for `Cc1cccc(C)c1CNc1cc(Br)cc2c1nc(C)n2COCc1ccccc1`, 147 to 148 °C; as for `NC(=O)C1=CC=CNC=C1`, 167 to 171 °C. In turn, `CNC(=O)CCCCc1csc(NC(N)=NCC(F)(F)F)n1` displayed a melting point of 122 to 126 °C. As for `[N-]=[N+]=Nc1ccnc2c(NC(=O)c3c(Cl)cccc3Cl)cccc12`, the melting point lay within 188 to 193 °C. Consider `N#CC(C#N)=NC1=C(N2CCOCC2)CCC1`, for which the melting point lay within 157 to 158 °C.

In the case of `O=C1NC(=O)C(Cc2ccc(OCc3cscn3)cc2)S1` (centres undefined), the melting point lay within 151 to 153 °C. Take `CNC(=O)NC1CCC(=O)c2sccc21` (centres undefined): the melting point lay in the range of 212 to 215 °C. The same measure for `CC1(C)OCCN1C(=O)C(Cl)Cl`: 113 to 115 °C; for `N#CC1=C(C2CCC2)Nc2n[nH]cc2C1c1cccc(C#N)c1Br` (centres undefined): 278 °C. As for `CCCCN1CC2CN(c3ccc([N+](=O)[O-])cc3[N+](=O)[O-])CC(C1)C2(C)C`, the figure is 119 °C; as for `Cn1nc(-n2ncc(C(N)=S)c2Br)c(Cl)c1OC(F)F`, 175 °C. As for `CCNC(=S)NC1=Nc2ccc(OC(F)(F)F)cc2SC1`, the figure is 199 to 201 °C; as for `O=Cc1c(F)cccc1Br`, 35 to 37 °C. Turning to `NS(=O)(=O)c1ccc(-c2cn(-c3nc(-c4ccc(F)cc4)cc(C(F)(F)F)n3)cn2)s1`, the melting point is 244 °C. As for `CCOC(=O)c1cn(CC)c2c(F)c(C(=O)C=CN(C)C)c(F)cc2c1=O`, the figure is 175 to 177 °C; as for `CCOC(=O)c1c(C=O)c2c(Cl)cc(Cl)cc2n1C(=O)OC(C)(C)C`, 141 °C.

Broadly, the melting point is the temperature, or range, at which the solid turns liquid.
